These are literature values, as cited in patent publication US20050031690A1, “Stabilized prostaglandin formulation” (Pharmacia Corporation, priority 2003, published 2005).

The conditions of this data set: solution state.

Take `CCCCC[C@H](O)/C=C/[C@H]1[C@H](O)CC(=O)[C@@H]1CCCCCCC(=O)O` [prostaglandin E1]: the “pH region of relative stability” value was 3-4.
